Where two headings read alike, the source gives them in different places. Where no end group is shown, it is not given here.
Assays:
BxPC-3 cells = experiment: Binding of peptide-IRDye conjugates to cultured BxPC-3 cells; assay type: cell-based, human; conditions: BxPC-3 (αvβ6+ αvβ8-), 1 h at 37° C.
Procedure: (§1) B) Binding of the indicated peptide-IRDye conjugates to the various cell lines. Various amounts of conjugates were added to cell monolayers (grown in 96-well microtiter plates) and incubated for 1 h at 37° C., 5% CO2 (see Experimental section). After washing, bound fluorescence was measured using an Odyssey CLx (LI-COR) scanner. A representative image of the scanned plate and binding quantification are reported. Mean ±SE of quadruplicate wells.
(§2) Various amounts of unlabeled peptides were mixed 5a-IRDye (4 nM) and added to the cells. After 1 h, the plates were washed, and the bound fluorescence was quantified as described above (left panels).
(§3) The binding of peptide-IRDye conjugates to BxPC-3, 5637, HUVECs, 4T1, K8484 and DT6606 cells was analyzed as follows. The cells were grown in 96-well clear-bottom black microtiterplates (Corning® cat. 3603, 2-3x10^4 cells/well, plated 48 h before the experiment). After washing twice with 0.9% sodium chloride solution, the cells were incubated with 25 mM Hepes buffer, pH 7.4, containing 150 mM sodium chloride, 1 mM magnesium chloride, 1 mM manganese chloride and 1% BSA (binding buffer) for 5 min. Peptide-IRDye conjugates (0.013-40 nM in binding buffer) were then added to the cells and left to incubate for 1 h at 37° C., 5% CO2. After three washings with binding buffer (5 min each, 200 al/well), the cells were fixed with PBS containing 2% paraformaldehyde and 3% sucrose for 15 min at room temperature. Binding of conjugates to cells was quantified by scanning the plate (filled with PBS, 100 al/well) with the Odyssey CLx (LI-COR) using the following settings: scan intensity, 8.5; scan focus offset 4; scan quality, highest; channel, 800; resolution, 169 pm. Then, the plates were incubated with 5 μg/ml of 4′,6-diamidino-2-phenylindole (DAPI) for 15 min, washed twice with PBS and read with a VICTOR3 plate reader (Perkin Elmer, Waltham, Mass., USA) to quantify the cell number in each well, using the following filters: excitation, 355±40 nm; emission, 460±25 nm (acquisition,1 s).

αvβ6 [1] = target: T1, αvβ6 (Homo sapiens, UniProt P06756+P18564); experiment: Direct binding of peptide-IRDye conjugates to αvβ6-coated microtiter plates; conditions: purified integrin
T1 construct: recombinant human αvβ6 extracellular domain (R&D Systems); purchased R&D Systems (Minneapolis, Minn.)
T1 sequence (P06756 31-992 limits assumed): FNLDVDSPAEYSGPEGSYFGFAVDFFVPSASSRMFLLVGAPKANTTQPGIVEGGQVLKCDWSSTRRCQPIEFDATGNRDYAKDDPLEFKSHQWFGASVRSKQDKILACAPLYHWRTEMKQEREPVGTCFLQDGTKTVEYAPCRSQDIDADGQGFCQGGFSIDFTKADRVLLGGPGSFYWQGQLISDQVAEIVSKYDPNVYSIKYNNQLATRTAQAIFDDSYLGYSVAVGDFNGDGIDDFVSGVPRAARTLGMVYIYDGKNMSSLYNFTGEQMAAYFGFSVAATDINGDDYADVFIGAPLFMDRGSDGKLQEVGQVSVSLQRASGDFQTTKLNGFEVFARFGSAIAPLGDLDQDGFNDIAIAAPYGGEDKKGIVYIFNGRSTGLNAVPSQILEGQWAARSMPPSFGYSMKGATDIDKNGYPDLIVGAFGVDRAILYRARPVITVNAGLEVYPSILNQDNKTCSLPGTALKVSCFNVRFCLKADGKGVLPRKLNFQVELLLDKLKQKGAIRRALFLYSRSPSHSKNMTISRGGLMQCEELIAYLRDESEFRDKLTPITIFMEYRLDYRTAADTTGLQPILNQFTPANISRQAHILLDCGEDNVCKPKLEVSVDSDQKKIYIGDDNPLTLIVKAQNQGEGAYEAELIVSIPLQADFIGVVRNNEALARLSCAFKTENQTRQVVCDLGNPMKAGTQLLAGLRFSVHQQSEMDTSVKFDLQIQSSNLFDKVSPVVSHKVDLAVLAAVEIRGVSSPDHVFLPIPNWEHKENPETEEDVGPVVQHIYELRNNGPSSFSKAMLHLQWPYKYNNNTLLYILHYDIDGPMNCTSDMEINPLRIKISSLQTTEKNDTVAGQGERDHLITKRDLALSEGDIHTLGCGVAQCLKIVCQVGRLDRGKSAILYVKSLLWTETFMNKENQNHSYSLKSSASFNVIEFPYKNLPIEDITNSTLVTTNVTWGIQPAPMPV
T1 sequence (P18564 22-709 limits assumed): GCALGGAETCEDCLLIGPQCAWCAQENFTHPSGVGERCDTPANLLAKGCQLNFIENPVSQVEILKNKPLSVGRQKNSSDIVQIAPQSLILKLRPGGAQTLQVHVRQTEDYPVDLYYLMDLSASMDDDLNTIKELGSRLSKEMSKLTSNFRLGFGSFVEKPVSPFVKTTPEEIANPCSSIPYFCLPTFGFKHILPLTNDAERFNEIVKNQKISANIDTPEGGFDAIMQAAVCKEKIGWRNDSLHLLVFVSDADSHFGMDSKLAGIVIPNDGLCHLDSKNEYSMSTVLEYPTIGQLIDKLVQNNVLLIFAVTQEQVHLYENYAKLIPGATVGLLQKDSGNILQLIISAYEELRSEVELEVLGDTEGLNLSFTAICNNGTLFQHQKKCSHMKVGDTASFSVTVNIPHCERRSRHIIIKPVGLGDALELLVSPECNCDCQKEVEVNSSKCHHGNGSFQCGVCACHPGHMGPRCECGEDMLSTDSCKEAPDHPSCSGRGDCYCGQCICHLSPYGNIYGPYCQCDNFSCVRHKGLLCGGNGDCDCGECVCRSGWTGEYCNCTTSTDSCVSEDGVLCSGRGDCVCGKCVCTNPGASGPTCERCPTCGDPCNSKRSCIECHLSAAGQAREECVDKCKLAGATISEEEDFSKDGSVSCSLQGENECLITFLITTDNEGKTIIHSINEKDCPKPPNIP
Procedure: (§4) Binding of 5a-IRDye and 2a-IRDye to microtiterplates coated with or without αvβ6 or αvβ8 as indicated in each panel. Various amounts of conjugates were added to microtiterplates and incubated for 1 h at room temperature (see Experimental section). After washing, bound fluorescence was measured using an Odyssey CLx (LI-COR) scanner. Representative images of the scanned plate and quantification of the binding are reported. Mean ±SE of triplicates. Effective concentration 50 (EC50, mean±SD) of the indicated number of independent experiments is shown.
(§5) Binding of 5a-IRDye, 2a-IRDye and Cys-IRDye to αvβ6 and αvβ8 was determined by direct binding assays as follows: 96-well clear-bottom black microtiterplates (Corning® cat. 3601) were coated with 4 μg/ml αvβ6 or αvβ8, in Dulbecco's phosphate-buffered saline with Ca2+ and Mg2+(DPBS, 50 ul/well) and left to incubate over-night at 4° C. […] The bound fluorescence was then quantified by scanning the empty plates with an Odyssey CLx near-infrared fluorescence imaging system (LI-COR) using the following settings: scan intensity, 8.5; scan focus offset, 3; scan quality, highest; channel, 800; resolution, 169 pm.

5637 cells [2] = experiment: Binding of peptide-IRDye conjugates to cultured 5637 cells; assay type: cell-based, human; conditions: 5637 (αvβ6+ αvβ8+), 1 h at 37° C.
Procedure: as §1, §2, §3

αvβ8 [3] = target: T2, αvβ8 (Homo sapiens, UniProt P06756+P26012); experiment: Direct binding of peptide-IRDye conjugates to αvβ8-coated microtiter plates; conditions: purified integrin
T2 sequence (P06756 31-992 limits assumed): as the sequence (P06756 31-992 limits assumed) above
T2 sequence (P26012 43-684 limits assumed): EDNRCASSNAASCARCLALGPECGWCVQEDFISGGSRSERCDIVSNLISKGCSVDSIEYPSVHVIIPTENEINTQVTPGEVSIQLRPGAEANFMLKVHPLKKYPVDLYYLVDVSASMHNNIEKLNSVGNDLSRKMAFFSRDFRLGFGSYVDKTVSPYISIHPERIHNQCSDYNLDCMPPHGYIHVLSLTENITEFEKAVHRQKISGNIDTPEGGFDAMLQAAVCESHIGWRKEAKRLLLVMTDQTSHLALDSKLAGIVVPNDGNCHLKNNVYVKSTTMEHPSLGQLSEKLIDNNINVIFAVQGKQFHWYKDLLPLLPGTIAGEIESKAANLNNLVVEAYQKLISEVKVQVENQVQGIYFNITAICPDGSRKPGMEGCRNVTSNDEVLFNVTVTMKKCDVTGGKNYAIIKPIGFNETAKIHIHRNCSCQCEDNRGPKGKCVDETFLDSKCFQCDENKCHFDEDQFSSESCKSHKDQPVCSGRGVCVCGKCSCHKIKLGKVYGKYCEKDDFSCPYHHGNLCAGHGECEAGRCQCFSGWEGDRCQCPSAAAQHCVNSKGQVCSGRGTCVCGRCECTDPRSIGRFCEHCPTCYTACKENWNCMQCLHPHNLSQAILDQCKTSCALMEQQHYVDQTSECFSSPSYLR
Procedure: as §4, §5

in vivo = conditions: female, NSG, mouse, iv, 1.28 nmol
[4] = system: subcutaneous BxPC-3 tumors; conditions: mouse, in vivo
HUVEC = experiment: Binding of peptide-IRDye conjugates to cultured HUVEC; assay type: cell-based, human; conditions: HUVEC (lacking these integrins)
Procedure: as §1
The binding of peptide-IRDye conjugates to BxPC-3, 5637, HUVECs, 4T1, K8484 and DT6606 cells was analyzed as follows. The cells were grown in 96-well clear-bottom black microtiterplates (Corning® cat. 3603, 2-3x10^4 cells/well, plated 48 h before the experiment). […] Binding of conjugates to cells was quantified by scanning the plate (filled with PBS, 100 al/well) with the Odyssey CLx (LI-COR) using the following settings: scan intensity, 8.5; scan focus offset 4; scan quality, highest; channel, 800; resolution, 169 pm. Then, the plates were incubated with 5 μg/ml of 4′,6-diamidino-2-phenylindole (DAPI) for 15 min, washed twice with PBS and read with a VICTOR3 plate reader (Perkin Elmer, Waltham, Mass., USA) to quantify the cell number in each well, using the following filters: excitation, 355±40 nm; emission, 460±25 nm (acquisition,1 s).

5637 cells [5] = experiment: Binding assay of 5-Qdot to human 5637 cells (FACS, fluorescence microscopy); assay type: cell-based; conditions: flow cytometry and fluorescence microscopy
Procedure: FIG. 3. Binding of CgA-derived peptides to human bladder cancer 5637 cells. a) Effect of 1, 4, 5 and 6 on the binding of anti-αvβ6 mAb 10D5 to 5637 cells. Antibody binding quantification as determined by flow cytometry analysis (FACS) (see also FIG. 11A). Compounds were mixed with mAb 10D5 and added to cells; mAb binding was detected by FACS and inhibitory concentration (IC50, mean±SEM) was determined. Each point is in duplicate. b) Binding of 5-Qdot or *Qdot (control) to 5637 cells as measured by FACS. Representative FACS (left and middle) and quantification of Qdot binding (right) (circles: mean±SD of duplicates). c) Representative fluorescence bioimaging of 5637 cells incubated with 5-Qdot, *Qdot or diluent. […]
Binding assays of 5-Qdot and *Qdot to 5637 cells were carried out as follows: 5637 cells were grown in chamber slides (6×10^4 cells/well). […] The cells were washed again with binding buffer, fixed with paraformaldehyde for 20 min, counterstained with DAPI (0.05 μg/ml, Invitrogen), and analyzed using a fluorescence microscopy (Carl Zeiss, Axioscop 40FL; excitation, filter, BP 560/40 nm; beam splitter filter, FT 585 nm; emission filter, 630/75 nm). […] After washing with 25 mM Hepes buffer, pH 7.4, containing 150 mM NaCl, 1 mM MgCl2, 1 mM MgCl2, the cells were fixed with formaldehyde and analyzed using the CytoFLEX S (Beckman Coulter).

αvβ3 = target: T3, αvβ3 (Homo sapiens, UniProt P05106+P06756); conditions: Table 3a; Ki of 2 as determined in [21]; cited from earlier work
T3 construct: purchased Immunological Sciences (Rome, Italy)

αvβ8 [6] = target: T2, αvβ8; experiment: Competitive integrin binding assay (isoDGR/STV-HRP probe), αvβ8-coated plates; conditions: non-stapled control peptide with RGE
Procedure: (§6) Peptide binding was measured by a competitive binding assay using as integrin probe a complex made by a N-terminal acetylated isoDGR peptide biotinylated at the E-amino group of the lysine, acetyl-Ciso[…]-bio (SEQ ID No. 29), and a streptavidin-peroxidase conjugate (called isoDGR/STV-HRP)[43].
(§7) Each mixture was then added to integrin-coated wells and left to incubate for 2 h at room temperature. After washing with 25 mM Tris-HCl, pH 7.4, containing 150 mM sodium chloride, 1 mM magnesium chloride, 1 mM manganese chloride, each well was filled with a chromogenic solution (o-phenylenediamine dihydrochloride) and left to incubate for 30 min at room temperature. The chromogenic reaction was stopped by adding 1 N sulfuric acid. The absorbance at 490 nm was then measured using a microtiterplate reader. Ki values were calculated by non-linear regression analysis of competitive binding data using the “One site - Fit Ki” equation of the GraphPad Prism Software using the Kd values of the probe indicated above.

αvβ8 [7] = target: T2, αvβ8; conditions: Table 3a; Ki of 2 as determined in [21]; cited from earlier work
αvβ6 [8] = target: T1, αvβ6; conditions: cited from earlier work
α5β1 = target: T4, α5β1 (Homo sapiens, UniProt P05556+P08648); conditions: Table 3a; Ki of 2 as determined in [21]; cited from earlier work
T4 construct: purchased Immunological Sciences (Rome, Italy)
T4 sequence (P08648 42-894 limits assumed): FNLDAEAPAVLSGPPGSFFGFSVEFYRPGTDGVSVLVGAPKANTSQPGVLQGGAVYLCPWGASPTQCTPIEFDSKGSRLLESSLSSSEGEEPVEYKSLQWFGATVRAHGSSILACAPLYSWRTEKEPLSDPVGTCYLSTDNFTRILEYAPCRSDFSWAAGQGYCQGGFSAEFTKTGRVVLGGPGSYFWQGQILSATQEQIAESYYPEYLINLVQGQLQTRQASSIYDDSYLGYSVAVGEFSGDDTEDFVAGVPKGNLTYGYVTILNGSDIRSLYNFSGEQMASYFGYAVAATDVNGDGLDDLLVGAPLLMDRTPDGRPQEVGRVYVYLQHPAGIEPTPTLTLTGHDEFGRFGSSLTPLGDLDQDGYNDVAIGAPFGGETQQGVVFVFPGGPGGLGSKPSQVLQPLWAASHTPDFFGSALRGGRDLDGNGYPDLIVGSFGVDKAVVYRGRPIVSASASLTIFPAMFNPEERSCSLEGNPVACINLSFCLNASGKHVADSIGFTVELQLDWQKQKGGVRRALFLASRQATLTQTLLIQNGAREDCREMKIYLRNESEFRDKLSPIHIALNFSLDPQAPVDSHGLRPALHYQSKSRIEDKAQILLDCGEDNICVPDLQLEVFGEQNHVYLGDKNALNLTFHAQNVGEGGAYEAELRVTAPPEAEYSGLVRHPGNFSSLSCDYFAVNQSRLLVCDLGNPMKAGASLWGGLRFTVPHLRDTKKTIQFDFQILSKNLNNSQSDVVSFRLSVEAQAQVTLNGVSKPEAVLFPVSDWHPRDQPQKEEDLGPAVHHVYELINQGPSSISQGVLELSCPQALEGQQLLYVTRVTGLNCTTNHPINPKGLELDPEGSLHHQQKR
T4 sequence (P08648 895-1049 partner limits assumed): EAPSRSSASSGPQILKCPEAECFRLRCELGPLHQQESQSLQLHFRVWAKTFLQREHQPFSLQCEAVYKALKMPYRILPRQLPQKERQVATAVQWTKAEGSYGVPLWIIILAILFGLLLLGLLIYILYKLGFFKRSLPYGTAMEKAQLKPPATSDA
T4 sequence (P05556 21-798): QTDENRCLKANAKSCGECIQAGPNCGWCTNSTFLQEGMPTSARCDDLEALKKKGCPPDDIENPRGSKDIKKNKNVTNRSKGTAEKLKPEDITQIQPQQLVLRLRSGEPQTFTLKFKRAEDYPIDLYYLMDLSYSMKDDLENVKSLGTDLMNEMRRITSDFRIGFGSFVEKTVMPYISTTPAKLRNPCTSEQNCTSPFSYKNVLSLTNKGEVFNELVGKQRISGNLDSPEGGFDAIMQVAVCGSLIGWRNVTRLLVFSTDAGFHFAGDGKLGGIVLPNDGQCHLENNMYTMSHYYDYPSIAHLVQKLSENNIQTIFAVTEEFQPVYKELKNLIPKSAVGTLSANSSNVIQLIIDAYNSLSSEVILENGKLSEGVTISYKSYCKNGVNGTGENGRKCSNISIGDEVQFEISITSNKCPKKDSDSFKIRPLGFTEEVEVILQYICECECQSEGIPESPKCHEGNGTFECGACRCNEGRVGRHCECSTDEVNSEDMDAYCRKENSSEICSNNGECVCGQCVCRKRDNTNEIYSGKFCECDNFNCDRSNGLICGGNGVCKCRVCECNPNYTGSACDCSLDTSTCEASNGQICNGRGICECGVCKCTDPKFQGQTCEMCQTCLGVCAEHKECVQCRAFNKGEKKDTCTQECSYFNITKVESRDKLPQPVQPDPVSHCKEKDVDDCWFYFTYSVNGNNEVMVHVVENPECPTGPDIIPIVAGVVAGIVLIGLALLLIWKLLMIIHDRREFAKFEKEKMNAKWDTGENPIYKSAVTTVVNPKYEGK

αvβ5 = target: T5, αvβ5 (Homo sapiens, UniProt P06756+P18084); conditions: Table 3a; Ki of 2 as determined in [21]; cited from earlier work
T5 construct: purchased Immunological Sciences (Rome, Italy)

αvβ6 [9] = target: T1, αvβ6; experiment: Competitive integrin binding assay (isoDGR/STV-HRP probe), αvβ6-coated plates; conditions: non-stapled control peptide with RGE
Procedure: as §6, §7

In the case of “2a-IRDye: control peptide 2a coupled via Cys to maleimide-IRDye 800CW (C(maleimide‑IRDye 800CW)FETLRGEERILSILRHQNLLKELQD) [reference compound]”, the “binding of conjugate to cells” value (BxPC-3 cells) is reported as “not”, the “binding to αvβ6-coated plates” value (αvβ6 [1]) is reported as “not” and the “binding of conjugate to cells” value (5637 cells [2]) is reported as “not”. For the same molecule, the “binding to αvβ8-coated plates” value (αvβ8 [3]) was “not”.
In the case of `CC[C@H](C)[C@H](NC(=O)[C@H](CCCNC(=N)N)NC(=O)[C@H](CC(C)C)NC(=O)[C@H](CC(=O)O)NC(=O)CNC(=O)[C@H](CCCNC(=N)N)NC(=O)[C@H](CC(C)C)NC(=O)[C@@H](NC(=O)[C@H](CCC(=O)O)NC(=O)[C@H](Cc1ccccc1)NC(=O)[C@@H](N)CSC1CC(=O)N(CCNC(=O)CCCCCN2C(=CC=C3CCCC(C=CC4=[N+](CCCCS(=O)(=O)[O-])c5ccc(S(=O)(=O)O)cc5C4(C)C)=C3Oc3ccc(S(=O)(=O)O)cc3)C(C)(C)c3cc(S(=O)(=O)O)ccc32)C1=O)[C@@H](C)O)C(=O)N[C@@H](CC(C)C)C(=O)N[C@@H](CO)C(=O)N[C@H](C(=O)N[C@@H](CC(C)C)C(=O)N[C@@H](CCCNC(=N)N)C(=O)N[C@H]1Cc2cn(nn2)CCCC[C@@H](C(=O)N[C@@H](CCCCN)C(=O)N[C@@H](CCC(=O)O)C(=O)N[C@@H](CC(C)C)C(=O)N[C@@H](CCC(N)=O)C(=O)N[C@@H](CC(=O)O)C(N)=O)NC(=O)[C@H](CC(C)C)NC(=O)[C@H](CC(N)=O)NC(=O)[C@H](CCC(N)=O)NC1=O)[C@@H](C)CC` (stereo partly shown) [5a-IRDye], the tissue to tissue ratio at 24 h (in vivo) is reported as 12, the “binding of conjugate to cells” value (BxPC-3 cells) is reported as “could bind, in a dose dependent manner” and the “binding of conjugate to cells” value (5637 cells [2]) is reported as “could bind, in a dose dependent manner”. The “tumor signal twenty-four hours after injection” value [4] was “significant signal was still visible”, the “time of maximal tumor uptake after injection” value ([4]; iv) was 1 h and the “binding of conjugate to cells” value (HUVEC) was “little or not”.
In the case of “*Qdot: control nanoconjugate without the targeting ligand; Qdot coupled to control peptide cyclic head-to-tail c(CGARAG) (cyclo(CGARAG); also: coupled to Qdot (control nanoconjugate)) [reference compound]”, the “binding of Qdot conjugate to cells” value (5637 cells [5]) is reported as “not”.
In the case of FETLRGEERILSILRHQNLLKELQD [peptide 2], the Ki (αvβ3) is listed as > 50 µM, the “binding to αvβ8” value (αvβ8 [6]) is listed as “unable to bind these integrins” and the Ki (αvβ8 [7]) is listed as > 50 µM. For the same molecule, the Ki (αvβ6 [8]; Table 3a, Ki of 2 as determined in [21], read-out: Ki αvβ6) was > 50 µM, the Ki (αvβ6 [8]; peptide with RGE instead of RGD, read-out: Ki) was > 50 µM and the Ki (α5β1) was > 50 µM. The Ki (αvβ5) was > 50 µM and the “binding to αvβ6” value (αvβ6 [9]) was “unable to bind these integrins”.

From US20220402980A1, “CHROMOGRANIN A-DERIVED PEPTIDES AND USES THEREOF” (OSPEDALE SAN RAFFAELE S.R.L., priority 2019, published 2022)
